Experimental data: USRE42890E1, “Furazanobenzimidazoles” (Basilea Pharmaceutica AG, priority 2003, dated 2011)

Key:
MRC5 = test: MTS proliferation assay, MRC5; assay type: cell-based; details: MRC5, 72 h incubation; read-out: MTS proliferation assay IC 50 MRC5
Method in brief: (§1)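 RPMI-1640 + 5% or 10% FCS; seeded 24 h pre-dose; cpd final 10/3/1/0.3 μM, max 5% DMSO in added volume; 72 h, 37° C, 7.5% CO2; MTS 3 h; A492.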

[1] = system: adherent cells or suspension cells; test: Hoechst 33342 nuclear staining (fraction of apoptotic nuclei); assay type: cell-based; design: key: 0 relating to no activity; 1 relating to weak activity comprising less than 70% of the cells; score 2 relating to strong activity comprising more than 70% of the cells
HeLa = test: MTS proliferation assay, HeLa; assay type: cell-based, human; details: 72 h incubation, read-out: MTS proliferation assay IC 50 HeLa
Method in brief: (§2)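 Seed cells (1.5*10^3-10^4/well) 24 h ahead; add compound, final 10/3/1/0.3 μM; incubate 72 h, 37 °C, 7.5% CO2; MTS 3 h; read A492.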

HT1080 = test: MTS proliferation assay, HT1080; assay type: cell-based, human; details: HT1080, 72 h incubation; read-out: MTS proliferation assay IC 50 HT1080
Method in brief: as §2

Jily = test: MTS proliferation assay, Jily; assay type: cell-based; details: 72 h incubation, read-out: MTS proliferation assay IC 50 Jily
Method in brief: as §1

Jurkat = test: MTS proliferation assay, Jurkat; assay type: cell-based, human; details: 72 h incubation, read-out: MTS proliferation assay IC 50 Jurkat
Method in brief: as §2

Structure (SMILES)	IC50 (MRC5) [nM]	Hoechst 33342 nuclear staining score ([1]; H460, conc 0.01 μm)	Hoechst 33342 nuclear staining score ([1]; H460, conc 0.1 μm)	Hoechst 33342 nuclear staining score ([1]; H460, conc 1 μm)	Hoechst 33342 nuclear staining score ([1]; HeLa, conc 0.01 μm)	Hoechst 33342 nuclear staining score ([1]; HeLa, conc 0.1 μm)	Hoechst 33342 nuclear staining score ([1]; HeLa, conc 1 μm)	Hoechst 33342 nuclear staining score ([1]; Jily, conc 0.01 μm)	Hoechst 33342 nuclear staining score ([1]; Jily, conc 0.1 μm)	Hoechst 33342 nuclear staining score ([1]; Jily, conc 1 μm)	Hoechst 33342 nuclear staining score ([1]; Jurkat, conc 0.01 μm)	Hoechst 33342 nuclear staining score ([1]; Jurkat, conc 0.1 μm)	Hoechst 33342 nuclear staining score ([1]; Jurkat, conc 1 μm)	Hoechst 33342 nuclear staining score ([1]; MRC5, conc 0.01 μm)	Hoechst 33342 nuclear staining score ([1]; MRC5, conc 0.1 μm)	Hoechst 33342 nuclear staining score ([1]; PBLs, conc 0.01 μm)	IC50 (HeLa) [nM]	IC50 (HT1080) [nM]	IC50 (Jily) [nM]	IC50 (Jurkat) [nM]	other results
Nc1nonc1-c1nc2ccccc2n1CC(=O)/C=C/c1ccc(Cl)cc1 [Example 118]	> 1000	0	0	0	0	0	0	0	0	1 (1 relating to weak activity comprising less than 70% of the cells)	0	0	0	0	0	0	> 1000	> 1000	> 1000	> 1000	Hoechst 33342 nuclear staining score ([1]; MRC5, conc 1 μm): 0; Hoechst 33342 nuclear staining score ([1]; PBLs, conc 0.1 μm): 0; Hoechst 33342 nuclear staining score ([1]; PBLs, conc 1 μm): 0
N#CCCNc1nonc1-c1nc2ccccc2n1COc1ccc(Br)cc1 [Example 94]	100 to 1000	0	2 (score 2 relating to strong activity comprising more than 70% of the cells)	2 (score 2 relating to strong activity comprising more than 70% of the cells)	0	1 (1 relating to weak activity comprising less than 70% of the cells)	2 (score 2 relating to strong activity comprising more than 70% of the cells)	0	2 (score 2 relating to strong activity comprising more than 70% of the cells)	2 (score 2 relating to strong activity comprising more than 70% of the cells)	0	2 (score 2 relating to strong activity comprising more than 70% of the cells)	2 (score 2 relating to strong activity comprising more than 70% of the cells)	0	0	0	10 to 100	10 to 100	10 to 100	10 to 100	Hoechst 33342 nuclear staining score ([1]; MRC5, conc 1 μm): 2 (score 2 relating to strong activity comprising more than 70% of the cells); Hoechst 33342 nuclear staining score ([1]; PBLs, conc 0.1 μm): 0; Hoechst 33342 nuclear staining score ([1]; PBLs, conc 1 μm): 0
Nc1nonc1-c1nc2ccccc2n1CC(=O)c1ccccn1 [Example 59]	100 to 1000	0	0	2 (score 2 relating to strong activity comprising more than 70% of the cells)	0	0	2 (score 2 relating to strong activity comprising more than 70% of the cells)	0	0	2 (score 2 relating to strong activity comprising more than 70% of the cells)	0	0	2 (score 2 relating to strong activity comprising more than 70% of the cells)	0	0	0	100 to 1000	100 to 1000	100 to 1000	100 to 1000	Hoechst 33342 nuclear staining score ([1]; MRC5, conc 1 μm): 2 (score 2 relating to strong activity comprising more than 70% of the cells); Hoechst 33342 nuclear staining score ([1]; PBLs, conc 0.1 μm): 0; Hoechst 33342 nuclear staining score ([1]; PBLs, conc 1 μm): 0
Cc1ccc(C(=O)Cn2c(-c3nonc3N)nc3ccccc32)cc1 [Example 44]	10 to 100	0	2 (score 2 relating to strong activity comprising more than 70% of the cells)	2 (score 2 relating to strong activity comprising more than 70% of the cells)	0	1 (1 relating to weak activity comprising less than 70% of the cells)	2 (score 2 relating to strong activity comprising more than 70% of the cells)	0	2 (score 2 relating to strong activity comprising more than 70% of the cells)	2 (score 2 relating to strong activity comprising more than 70% of the cells)	0	2 (score 2 relating to strong activity comprising more than 70% of the cells)	2 (score 2 relating to strong activity comprising more than 70% of the cells)	0	0	0	10 to 100	10 to 100	10 to 100	< 10	Hoechst 33342 nuclear staining score ([1]; MRC5, conc 1 μm): 2 (score 2 relating to strong activity comprising more than 70% of the cells); Hoechst 33342 nuclear staining score ([1]; PBLs, conc 0.1 μm): 0; Hoechst 33342 nuclear staining score ([1]; PBLs, conc 1 μm): 0
COCCOc1ccc(C(=O)Cn2c(-c3nonc3N)nc3ccccc32)cc1 [Example 77]	100 to 1000	0	0	2 (score 2 relating to strong activity comprising more than 70% of the cells)	0	0	2 (score 2 relating to strong activity comprising more than 70% of the cells)	0	0	2 (score 2 relating to strong activity comprising more than 70% of the cells)	0	0	2 (score 2 relating to strong activity comprising more than 70% of the cells)	0	0	0	100 to 1000	100 to 1000	100 to 1000	100 to 1000	Hoechst 33342 nuclear staining score ([1]; MRC5, conc 1 μm): 1 (1 relating to weak activity comprising less than 70% of the cells); Hoechst 33342 nuclear staining score ([1]; PBLs, conc 0.1 μm): 0; Hoechst 33342 nuclear staining score ([1]; PBLs, conc 1 μm): 0
COc1ccc(C(=O)Cn2c(-c3nonc3N)nc3ccccc32)cc1OC [Example 76]	100 to 1000	0	1 (1 relating to weak activity comprising less than 70% of the cells)	2 (score 2 relating to strong activity comprising more than 70% of the cells)	0	0	2 (score 2 relating to strong activity comprising more than 70% of the cells)	0	2 (score 2 relating to strong activity comprising more than 70% of the cells)	2 (score 2 relating to strong activity comprising more than 70% of the cells)	0	2 (score 2 relating to strong activity comprising more than 70% of the cells)	2 (score 2 relating to strong activity comprising more than 70% of the cells)	0	0	0	100 to 1000	100 to 1000	10 to 100	100 to 1000	Hoechst 33342 nuclear staining score ([1]; PBLs, conc 0.1 μm): 0; Hoechst 33342 nuclear staining score ([1]; PBLs, conc 1 μm): 0
Nc1nonc1-c1nc2ccccc2n1CC1CC1 [B, reference compound]	> 1000	–	–	–	–	–	–	–	–	–	–	–	–	–	–	–	> 1000	> 1000	> 1000	> 1000	Hoechst 33342 nuclear staining score ([1]; H460, conc 3 μm): 0; Hoechst 33342 nuclear staining score ([1]; H460, conc 10 μm): 0; Hoechst 33342 nuclear staining score ([1]; H460, conc 30 μm): 0; Hoechst 33342 nuclear staining score ([1]; HeLa, conc 3 μm): 0; Hoechst 33342 nuclear staining score ([1]; HeLa, conc 10 μm): 0; Hoechst 33342 nuclear staining score ([1]; HeLa, conc 30 μm): 0; Hoechst 33342 nuclear staining score ([1]; Jily, conc 3 μm): 0; Hoechst 33342 nuclear staining score ([1]; Jily, conc 10 μm): 0; Hoechst 33342 nuclear staining score ([1]; Jily, conc 30 μm): 0; Hoechst 33342 nuclear staining score ([1]; Jurkat, conc 3 μm): 0; Hoechst 33342 nuclear staining score ([1]; Jurkat, conc 10 μm): 0; Hoechst 33342 nuclear staining score ([1]; Jurkat, conc 30 μm): 0; Hoechst 33342 nuclear staining score ([1]; MRC5, conc 3 μm): 0; Hoechst 33342 nuclear staining score ([1]; MRC5, conc 10 μm): 0; Hoechst 33342 nuclear staining score ([1]; MRC5, conc 30 μm): 0; Hoechst 33342 nuclear staining score ([1]; PBLs, conc 3 μm): 0; Hoechst 33342 nuclear staining score ([1]; PBLs, conc 10 μm): 0; Hoechst 33342 nuclear staining score ([1]; PBLs, conc 30 μm): 0
